# Laboratory results: US20060127423A1, “Organic compounds” (priority 1998, published 2006)
# Legend:
# [1] = previously reported; cited from earlier work
# [2] = Stability of PEG-containing infusion concentrates: degradation products by HPLC; format: physicochemical; conditions: ethanol/water 59:41 (w/w), 5 mg/ml, 2-8° C.
# [3] = as above; format: physicochemical
# Method: The stability of aqueous versus nonaqueous polyethyleneglycol infusion concentrates comprising epothilone B at different concentration and various temperatures is determined. Typically, a known amount of epothilone B is dissolved in 1.0 ml of each of the various solvent systems and each solution is sterile filtered and charged to 1 ml white-glass vials with grey rubber stoppers and grey flip-off caps. The stability is analyzed by determining formation of degradation products in each of the infusion concentrates as a function of time and temperature. Each sample is analyzed by HPLC, the sample is prepared by diluting the concentrate with an aqueous medium.
# [4] = Solubility of epothilone B in various solvent systems; format: physicochemical
# Method: If not indicated otherwise all solubility data refer to T=22° C.
compound,measurement,setting,value
C/C(=C\c1csc(C)n1)[C@@H]1C[C@@H]2O[C@@H]2CCC[C@H](C)[C@H](O)[C@@H](C)C(=O)C(C)(C)[C@@H](O)CC(=O)O1 [epothilone A],Aqueous solubility,[1],940 µg/mL
C/C(=C\c1csc(C)n1)[C@@H]1C[C@@H]2O[C@]2(C)CCC[C@H](C)[C@H](O)[C@@H](C)C(=O)C(C)(C)[C@@H](O)CC(=O)O1 [epothilone B],Proportion of degradation products,[2]; 1 month,0.3
same,Proportion of degradation products,[2]; 5 months,0.3
same,Proportion of degradation products,[2]; initial,<0.1
same,Proportion of degradation products,"[3]; PEG 300, 1 mg/ml, 3 months, 2-8° C.",<0.1
same,Proportion of degradation products,"[3]; PEG 300/water 90:10 (w/w), 15 mg/ml, 7 months, 2-8° C.",<0.1
same,Proportion of degradation products,"[3]; PEG 300/water 90:10 (w/w), 15 mg/ml, 7 months, 25° C.",1.0
same,Proportion of degradation products,"[3]; PEG 400, 1 mg/ml, 3 months, 2-8° C.",<0.1
same,Proportion of degradation products,"[3]; PEG 400, 1 mg/ml, 3 months, 25° C.",0.2
same,Proportion of degradation products,"[3]; PEG 400/water 90:10 (w/w), 1 mg/ml, 3 months, 2-8° C.",<0.1
same,Proportion of degradation products,"[3]; PEG 400/water 90:10 (w/w), 1 mg/ml, 3 months, 25° C.",0.4
same,Solubility,"[4]; EtOH/H2O (v/v) 10/90, T=22° C.",1100 µg/mL
same,Solubility,"[4]; EtOH/H2O (v/v) 20/80, T=22° C.",1300 µg/mL
same,Solubility,"[4]; EtOH/H2O (v/v) 30/70, T=22° C.",4100 µg/mL
same,Solubility,"[4]; EtOH/H2O (v/v) 50/50, T=22° C.",27000 µg/mL
same,Solubility,"[4]; EtOH/H2O (v/v) 100/0, T=22° C.",>50000 µg/mL
same,Solubility,"[4]; H2O (pH 6.0), 4° C.",190 µg/mL
same,Solubility,"[4]; H2O (pH 6.0), T=22° C.",160 µg/mL
same,Solubility,"[4]; H2O, 0.9% glucose, T=22° C.",160 µg/mL
same,Solubility,"[4]; H2O, 5% glucose, T=22° C.",160 µg/mL
same,Solubility,"[4]; H2O, 5% poloxamer 188, T=22° C.",230 µg/mL
same,Solubility,"[4]; H2O, 15% glycerin, T=22° C.",190 µg/mL
same,Solubility,"[4]; PEG 300/H2O (v/v) 30/70, T=22° C.",900 µg/mL
same,Solubility,"[4]; PEG 300/H2O (v/v) 50/50, T=22° C.",10000 µg/mL
same,Solubility,"[4]; PEG 300/H2O (v/v) 70/30, T=22° C.",2500 µg/mL
same,Solubility,"[4]; PEG 300/H2O (v/v) 100/0, T=22° C.",12000 µg/mL
same,Solubility,"[4]; PEG 400/H2O (v/v) 30/70, T=22° C.",800 µg/mL
same,Solubility,"[4]; PEG 400/H2O (v/v) 50/50, T=22° C.",11000 µg/mL
same,Solubility,"[4]; PEG 400/H2O (v/v) 70/30, T=22° C.",2300 µg/mL
same,Solubility,"[4]; PEG 400/H2O (v/v) 100/0, T=22° C.",30000 µg/mL
same,Solubility relative to water,"[4]; PEG/water, propyleneglycol/water, or EtOH/water mixtures",significantly higher solubility
same,Solubility,"[4]; Phosphate buffer pH 7.4, 4° C.",190 µg/mL
same,Solubility,"[4]; Phosphate buffer pH 7.4, T=22° C.",160 µg/mL
same,Solubility,"[4]; Propylene glycol/H2O (v/v) 30/70, T=22° C.",600 µg/mL
same,Solubility,"[4]; Propylene glycol/H2O (v/v) 50/50, T=22° C.",1600 µg/mL
same,Solubility,"[4]; Propylene glycol/H2O (v/v) 70/30, T=22° C.",10400 µg/mL
same,Solubility,"[4]; Propylene glycol/H2O (v/v) 100/0, T=22° C.",26000 µg/mL
same,Solubility in water,[4]; water at neutral pH,about 160 mg/l
